Measured values published in BindingDB's records for patent US20250011311 (Astrazeneca, 2025).

Target: T1, 17-beta-hydroxysteroid dehydrogenase 13 (Homo sapiens, UniProt Q7Z5P4)
T1 sequence (Q7Z5P4 whole entry): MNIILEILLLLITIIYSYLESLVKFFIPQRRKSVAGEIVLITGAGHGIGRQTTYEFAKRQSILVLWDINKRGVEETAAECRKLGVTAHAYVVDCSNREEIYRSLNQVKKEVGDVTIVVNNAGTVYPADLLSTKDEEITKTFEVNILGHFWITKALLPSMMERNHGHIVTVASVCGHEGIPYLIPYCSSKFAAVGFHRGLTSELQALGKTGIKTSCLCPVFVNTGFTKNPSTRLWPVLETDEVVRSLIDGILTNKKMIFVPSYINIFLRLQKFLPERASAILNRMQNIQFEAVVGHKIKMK
Assay: In Vitro 17bHSD13 Enzyme Assay
Procedure: Final assay conditions were 80 nM of 17bHSD13, 0.5 mM of NAD, 20 μM Estradiol and various concentrations of compound in buffer (5 mM EDTA (TEKNOVA E0306), 0.01% DDM (AFFYMETRIX D310) in 50 mM Tris-Cl, pH 7.4). After 2.5 h the reaction were stopped by addition of 20 μl of 0.6% Formic acid (MERCK 5.33002) and samples were analyzed using LC-MS/MS.SCIEX LC-MS/MS system: Sample was injected with CTC analytical injector, SHIMATZU LC pumps LC20 and analyzed on the SCIEX API 5000 LCMSMS system with the following settings. Samples were chromatographed on a WATERS, […], C8, 3.5 μm, 2.1×50 mm) column at constant flow rate of 0.5 mL/min. The mobile phases consist of A (water with 0.2% formic acid) and B (acetonitrile with 0.2% formic acid). The LC gradient profile is as follows: 50% B during 0 to 0.5 min, a linear increase to 100% B during 0.5 to 1 min, hold at 100% B during 1 to 1.6 min then back to 50% B from 1.6 to 2 min. The run time was 2 min with retention times of approximately 0.8 and 1.07 min for Estradiol and Estrone, respectively. Detection was performed on a API 5000 LC/MS/MS system with a triple quadrupole mass spectrometer, a TURBO V ion source, in multiple reaction monitoring (MRM) mode at positive polarity with APCI probe. The MRM pairs were m/z 273.1 to m/z 107.0 and m/z 271.3 to 107.0. for Estradiol and Estrone, respectively.

IC50: 151 nM
Compound: CN(C(=O)c1noc(-c2cc(F)c(F)c(O)c2F)n1)c1cccc(C#N)c1 [US20250011311, Example 63]
